Columns and labels:
[1] = system: Corynebacterium minutissimum ATCC 23348; assay: In vitro Minimum Inhibitory Concentration (MIC) testing; assay type: cell-based; details: for MIC: ATCC23348, read-out: Minimum Inhibition Concentration MIC
Experimental: (§1) The in vitro Minimum Inhibitory Concentration (MIC) Assay is a technique for determining the lowest concentration of a particular compound needed to prevent growth of microorganism. Different microorganisms were used to evaluate bacterial inhibition benefits for sulfate surfactants (Table 1) [table] Microorganisms are cultured and maintained in different culture medium. Each respective microorganism stock solution is diluted to 10^5 to 10^6 CFU/mL in a respective growth medium. 180 μl broth with the respective target microorganism is allocated into 96 well plates. For instance, Corynebacterium minutissimum ATCC 23348 is cultured on tryptic soy agar (TSA) (Oxoid CM0131) over 24 hours. The single colonies are then transferred into 20 mL Tryptone Soy Broth (Oxoid CM0129B—TSB) and cultured overnight at 200 rpm/min, 37° C. Bacterial cell in broth will be diluted to 10^5 to 10^6 CFU/mL in TSB. 180 μL of this bacterium-MHB mix is added to a 96 well flat-bottomed plate (Nunc™ MicroWell™ 96-Well, CAT. No. 167008). Sodium oleyl sulfate prepared from two different synthesis batches (Ex. 1A and Ex. 1B), sodium octyl sulfate, sodium decyl sulfate, sodium lauryl sulfate were mixed respectively with in Deionized (DI) water. Octadecyl sulfate sodium was mixed in Dimethyl sulfoxide (DMSO). Two folds serial dilution are applied to each respective active by mixing 100 μl active stock solution (from 1 wt. %) plus 100 μl sterilized DI water or DMSO in 96 well plates (Nunc™ MicroWell™ 96-Well, CAT. No. 167008). For each assay, 0.001-1 wt. % treatment solutions are prepared for each individual active. Micropipettes are used to transfer 20 μl of actives at different concentration into each well with 180 μl broth with the respective target microorganisms. The 96 well plates with test microorganisms and test actives are incubated at 37° C. • a) E. coli are incubated for overnight 16 hours to 24 hour. • b) Corynebacterium minutissimum is incubated for two days. • c) Cutibacterium acnes is incubated for two days under anaerobic conditions. After incubation, microorganism growth is determined in presence of test actives by visual inspection or spectrophotometer by OD600 (absorbance at 600 nm using Tecan M200 Infinite Pro Microplate Reader) reading in comparison with positive control (broth with individual microorganism) and negative control (Broth only). MIC values are presented as parts per million (ppm) for different actives.

[2] = system: Cutibacterium acne SK137; assay: as above; assay type: cell-based, Cutibacterium acnes; details: for MIC: Cutibacterium, SK137, Cutibacterium acne SK137, anaerobic, read-out: Minimum Inhibition Concentration MIC; for bacterial inhibition of Cutibacterium acne (in words): two strains (SK137, 2044 NIA)
Experimental: as §1, with “plates.” for “plates. For instance, Corynebacterium minutissimum ATCC 23348 is cultured on tryptic soy agar (TSA) (Oxoid CM0131) over 24 hours. The single colonies are then transferred into 20 mL Tryptone Soy Broth (Oxoid CM0129B—TSB) and cultured overnight at 200 rpm/min, 37° C. Bacterial cell in broth will be diluted to 10^5 to 10^6 CFU/mL in TSB. 180 μL of this bacterium-MHB mix is added to a 96 well flat-bottomed plate (Nunc™ MicroWell™ 96-Well, CAT. No. 167008).”

[3] = system: Staphylococcus aureus ATCC6538; assay: as above; assay type: cell-based; details: for MIC: read-out: Minimum Inhibition Concentration MIC
Experimental: as §1, with “plates.” for “plates. For instance, Corynebacterium minutissimum ATCC 23348 is cultured on tryptic soy agar (TSA) (Oxoid CM0131) over 24 hours. The single colonies are then transferred into 20 mL Tryptone Soy Broth (Oxoid CM0129B—TSB) and cultured overnight at 200 rpm/min, 37° C. Bacterial cell in broth will be diluted to 10^5 to 10^6 CFU/mL in TSB. 180 μL of this bacterium-MHB mix is added to a 96 well flat-bottomed plate (Nunc™ MicroWell™ 96-Well, CAT. No. 167008).”

[4] = system: Escherichia coli ATCC25922; assay: as above; assay type: cell-based; details: for MIC: Escherichia coli ATCC25922, pH of the assay 7.2, read-out: Minimum Inhibition Concentration MIC
Experimental: as §1, with “plates.” for “plates. For instance, Corynebacterium minutissimum ATCC 23348 is cultured on tryptic soy agar (TSA) (Oxoid CM0131) over 24 hours. The single colonies are then transferred into 20 mL Tryptone Soy Broth (Oxoid CM0129B—TSB) and cultured overnight at 200 rpm/min, 37° C. Bacterial cell in broth will be diluted to 10^5 to 10^6 CFU/mL in TSB. 180 μL of this bacterium-MHB mix is added to a 96 well flat-bottomed plate (Nunc™ MicroWell™ 96-Well, CAT. No. 167008).”

[5] = system: Cutibacterium acne 2044 NIA (skin isolate); assay: as above; assay type: cell-based, Cutibacterium acnes; details: for MIC: read-out: Minimum Inhibition Concentration MIC
Experimental: The in vitro Minimum Inhibitory Concentration (MIC) Assay is a technique for determining the lowest concentration of a particular compound needed to prevent growth of microorganism. Different microorganisms were used to evaluate bacterial inhibition benefits for sulfate surfactants (Table 1)
Microorganisms are cultured and maintained in different culture medium. Each respective microorganism stock solution is diluted to 10^5 to 10^6 CFU/mL in a respective growth medium. 180 μl broth with the respective target microorganism is allocated into 96 well plates.
Sodium oleyl sulfate prepared from two different synthesis batches (Ex. 1A and Ex. 1B), sodium octyl sulfate, sodium decyl sulfate, sodium lauryl sulfate were mixed respectively with in Deionized (DI) water. Octadecyl sulfate sodium was mixed in Dimethyl sulfoxide (DMSO).
Two folds serial dilution are applied to each respective active by mixing 100 μl active stock solution (from 1 wt. %) plus 100 μl sterilized DI water or DMSO in 96 well plates (Nunc™ MicroWell™ 96-Well, CAT. No. 167008). For each assay, 0.001-1 wt. % treatment solutions are prepared for each individual active.
Micropipettes are used to transfer 20 μl of actives at different concentration into each well with 180 μl broth with the respective target microorganisms.
The 96 well plates with test microorganisms and test actives are incubated at 37° C. • a) E. coli are incubated for overnight 16 hours to 24 hour. • b) Corynebacterium minutissimum is incubated for two days. • c) Cutibacterium acnes is incubated for two days under anaerobic conditions.
After incubation, microorganism growth is determined in presence of test actives by visual inspection or spectrophotometer by OD600 (absorbance at 600 nm using Tecan M200 Infinite Pro Microplate Reader) reading in comparison with positive control (broth with individual microorganism) and negative control (Broth only). MIC values are presented as parts per million (ppm) for different actives.
C. acne SK137 and C. acne 2044NIA (P&G skin isolate) are from Type IA-2 Clade by whole genome sequencing, which is reported to be associated with skin acne conditions.

[6] = system: E. coli ATCC25922; assay: Kill Rate Test in liquid (suspension time-kill testing); assay type: cell-based, Escherichia coli
Source text: The suspension time-kill test is a method to directly inoculate a liquid test substance with a high concentration of test microorganisms and then determine the percentage of killed over time, normally represented as log CFU reduction. The objective is to measure the biocidal potential of a liquid antimicrobial active or formulation.
E. coli ATCC25922 is streaked on Tryptic Soy Agar (TSA) Plates and cultured overnight. Pick up one colony of E. coli ATCC25922 and subculture bacterial cell in Tryptic Soy Broth (TSB) @ 200 rpm/min, 37° C. for 12-16 hours. After culturing, 1 mL bacterial cells in broth are pipetted into 2 mL tubes. Samples are centrifuged for 2 mins at 13000 rpm/min. Cell supernatant are discarded, and bacterial cells are resuspended in 1 mL Saline @ 10^8 to 10^9 CFU/mL. 1 mL liquid antimicrobial active to be tested under different concentrations is prepared: 20 mM acetate buffers are used to maintain the test solutions at a pH between 4.0 and 5.7. 10 mM phosphate buffer is used to maintain the test solution at a pH around 7.2. 20 mM Tris-HCl buffers are used to maintain the test solutions at a pH between 8.0 and 9.0. 1 mL saline (NaCl 0.9 wt. %) is used to as negative control in the study. 50 μl of 10^8 to 10^9 CFU/mL bacterial cells are added into each treatment and saline control. Samples were thoroughly mixed by vertexing 5 seconds. After incubating 30 minutes, 50 μl liquid from each treatment sample and saline control are pipetted out into for Total Viable Count Vial (NEOGEN). All measurements are done in duplicates. The Detection Time (DT) for Total Viable Count Vial is measured by Soleris® Next Generation (NEOGEN) system. DT values are averaged for each treatment and control for further calculation. DT time for each sample is converted to Log (viable cell number) by using algorithm generated for E. coli ATCC25922:
Biocidal potential of different actives at different concentrations and at different pHs in a liquid solution is measured by: […]

[7] = Source text: The term “Biodegradable Test” as used herein means the test as described in the Test Method Section herein in which the test material is suspended in a phosphate buffered media containing an activated sludge inoculum and the formation of carbon dioxide measured via a closed-circuit respirometer. The test material is the sole carbon and energy source and under aerobic conditions microorganisms metabolize organic substances producing CO2 as the ultimate product. The biodegradability of the salt of the alkenyl sulfate ester, preferably sodium oleyl sulfate can be tested according to the following method. The Biodegradability Test Method is based on the Organization for Economic Co-operation and Development (OECD) 301B CO2 evolution biodegradation test method that screens chemicals for ready biodegradability in an aerobic aqueous medium. In this test, the test substance is suspended in a phosphate buffered nutrient salts media containing an activated sludge inoculum and the formation of carbon dioxide is measured via a closed-circuit respirometer. […] The test system is dosed with a known quantity of carbon and biodegradation is calculated as the percent of theoretical CO2 formation. […] Ready biodegradability is a regulator definition that is used to classify materials that meet the pass criteria as described in the OECD 301B guideline. […]
[8] = Corynebacterium minutissimum ATCC 23348

Work on `CCCCCCCC/C=C\CCCCCCCCOS(=O)(=O)[O-].[Na+]` [Ex. 1A, sodium oleyl sulfate] yielded an MIC [1, 8] of 3.9 µg/mL, an MIC [2] of 3.9 µg/mL and an MIC ([3]; Staphylococcus aureus ATCC6538) of 3.9 µg/mL. The MIC [4] was greater than 1000 µg/mL and the MIC [5] was 7.8 µg/mL.
For `CCCCCCCCOS(=O)(=O)[O-].[Na+]` [sodium octyl sulfate], the MIC [1, 8] was greater than 500 µg/mL, the MIC [2] was greater than 500 µg/mL and the “inhibition of S. aureus (in words)” value [3] was “No inhibition”. It also gave an MIC ([3]; Staphylococcus aureus ATCC6538) greater than 1000 µg/mL, an MIC [4] greater than 1000 µg/mL and an MIC [5] greater than 500 µg/mL.
With `CCCCCCCCCCOS(=O)(=O)[O-].[Na+]` [sodium decyl sulfate] the MIC [1, 8] was greater than 500 µg/mL, the MIC [2] was greater than 500 µg/mL and the “inhibition of S. aureus (in words)” value [3] was “No inhibition”. It also gave an MIC ([3]; Staphylococcus aureus ATCC6538) greater than 1000 µg/mL, an MIC [4] greater than 1000 µg/mL and an MIC [5] greater than 500 µg/mL.
For `CCCCCCCC/C=C\CCCCCCCCOS(=O)(=O)[O-].[Na+]` [sodium oleyl sulfate], the “bacterial inhibition of Corynebacterium minutissimum (in words)” value [1] was “strong bacterial inhibition effects”, the “bacterial inhibition of Cutibacterium acne (in words)” value [2] was “strong bacterial inhibition effects” and the “effect against gram-negative E. coli (in words)” value ([4]; pH of the assay of 7.2) was “ineffective”. The “bactericidal activity against E. coli in solution (in words)” value ([6]; pH up to or equal to 4) was “some bactericidal activity” and the ready biodegradability [7] was “meeting both requirements for ready biodegradability”.
For `CCCCCCCCCCCCCCCCCCOS(=O)(=O)[O-].[Na+]` [octadecyl sulfate sodium salt], the MIC [1, 8] was greater than 500 µg/mL, the MIC [2] was greater than 500 µg/mL and the “bacterial inhibition of Cutibacterium acne (in words)” value [2] was “no effect”. The “inhibition of S. aureus (in words)” value [3] was “ineffective”, the MIC ([3]; Staphylococcus aureus ATCC6538) was greater than 500 µg/mL and the MIC [4] was greater than 1000 µg/mL. For the same compound, the MIC [5] was greater than 500 µg/mL.
For `CCCCCCCC/C=C\CCCCCCCCOS(=O)(=O)[O-].[Na+]` [Ex. 1B, sodium oleyl sulfate], the “Minimum Inhibition Concentration MIC” value [1, 8] was 3.9 ppm, the “Minimum Inhibition Concentration MIC” value ([2]; Cutibacterium acne SK137, anaerobic, sulfate) was 7.8 ppm and the “Minimum Inhibition Concentration MIC” value ([3]; Staphylococcus aureus ATCC6538) was 3.9 ppm. The “Minimum Inhibition Concentration MIC” value [5] was 7.8 ppm, the “bactericidal activity against E. coli ATCC25922 (log CFU reduction)” value (“bactericidal activity … (log CFU reduction)” below) ([6]; 12.5 ppm, test pH 4, 30 minutes) was 4.3 and the “bactericidal activity … (log CFU reduction)” value ([6]; 12.5 ppm, test pH 5.1, 30 minutes) was 0. For the same compound, the “bactericidal activity … (log CFU reduction)” value ([6]; 50 ppm, test pH 4, 30 minutes) was 6.6, the “bactericidal activity … (log CFU reduction)” value ([6]; 50 ppm, test pH 5.1, 30 minutes) was less than 0.3 and the “bactericidal activity … (log CFU reduction)” value ([6]; 200 ppm, test pH 4, 30 minutes) was 6.6. For the same compound, the “bactericidal activity … (log CFU reduction)” value ([6]; 200 ppm, test pH 5.1, 30 minutes) was less than 0.3.
With `CCCCCCCCCCCCOS(=O)(=O)[O-].[Na+]` [sodium lauryl sulfate] the MIC [1, 8] was 125 µg/mL, the MIC [2] was 31.2 µg/mL and the “inhibition of S. aureus (in words)” value [3] was “less potent than sodium oleyl sulfate”. It also gave an MIC ([3]; Staphylococcus aureus ATCC6538) of 125 µg/mL, an MIC [4] greater than 1000 µg/mL and an MIC [5] of 62.5 µg/mL.

From US20250009627A1, “THERAPEUTIC AND NON-THERAPEUTIC USES OF A PERSONAL CLEANSING COMPOSITION AND METHODS OF TREATMENT” (The Procter & Gamble Company, priority 2023, published 2025)
